In patent publication US20240410904A1, “NON-INVASIVE MONITORING OF LIVER DISEASE TREATMENT” (INVENTIVA, priority 2023, published 2024):

Key:
[1] = system: adult patients diagnosed with highly active, non-cirrhotic NASH; experiment: NATIVE phase 2b trial of lanifibranor, liver histology response at Week 24; assay type: in vivo, human; settings: once daily orally, 24 weeks
Source text: Patients were eligible for inclusion if they were 18 years of age or older and had non-cirrhotic NASH (the diagnosis of which required a Steatosis, Activity, Fibrosis [SAF] grade of 1 or higher for steatosis, hepatocellular ballooning and lobular inflammation on liver biopsy). A score of 3 or higher on the SAF-A (the activity part of the SAF scoring system that incorporates the scores for hepatocellular ballooning and lobular inflammation) was also a criterion for eligibility. Patients with stage F4 fibrosis, classified according to the criteria of both the SAF and NASH Clinical Research Network (NASH CRN) were excluded from the study. Patients were randomly assigned in a 1:1:1 ratio to receive 800 or 1200 mg lanifibranor or placebo once daily for 24 weeks. Liver biopsy was obtained at baseline and at the end of treatment. The primary end point of the NATIVE study was defined as a decrease of at least 2 points from baseline to Week 24 (end of treatment) in the SAF-A score and no worsening of fibrosis. Secondary histologic end points included resolution of NASH (defined as a ballooning grade of 0 and a lobular inflammation grade of ≤1) and no worsening of fibrosis; improvement in fibrosis of at least 1 stage and no worsening of NASH (i.e., no worsening in either steatosis, ballooning, or lobular inflammation); Nonalcoholic Fatty Liver Disease Activity Score (NAS) improvement (defined as a decrease of ≥2 points from baseline to week 24 in the NAS) and no worsening of fibrosis; resolution of NASH and an improvement in fibrosis stage of at least 1 (as a composite end point); change in scores for the components of the SAF and NASH CRN scoring system (steatosis, activity, inflammation, ballooning, and fibrosis); and change in the modified Ishak score. Non-histologic secondary endpoints included changes in a panel of serum biomarkers related to metabolism, inflammation tissue injury and fibrosis. Patients receiving lanifibranor 800 or 1200 mg per day were pooled and those with pre- and post-treatment liver biopsies were selected (n=142). Post-treatment biopsies were considered if they occurred within 14 days following last lanifibranor intake. The following histological endpoint according to NASH-CRN criteria was considered: NASH resolution without worsening of fibrosis (E2). In the NATIVE trial, from February 2017 through July 2019, 247 patients were randomly assigned to receive 1200 mg of lanifibranor (N=83), 800 mg of lanifibranor (N=83), or placebo (N=81) orally once daily for 6 months. A total of 228 patients completed the trial, 77 in each lanifibranor group and 74 in the placebo group. Reasons for discontinuation of the trial regimen have been reported elsewhere. Finally, among the 154 patients treated with lanifibranor at both doses, 142 patients (N=70 and N=72 patients treated with 800 or 1200 mg per day, respectively) presented with pre- and post-treatment liver biopsies within the time frame required for the present work and were included in the analysis population for signature development.

[2] = system: adult patients diagnosed with highly active, non-cirrhotic NASH; settings: background statement, cited from earlier work
[3] = 800 and 1200 mg per day pooled, analysis population N=142

Q: For `O=C(O)CCCc1cc2cc(Cl)ccc2n1S(=O)(=O)c1ccc2ncsc2c1` [lanifibranor, 4-[1-(1,3-benzothiazol-6-ylsulfonyl)-5-chloroindol-2-yl]butanoic acid], which “Resolution of NASH without worsening of liver fibrosis (E2), number of patients” value ([1]; 800 mg per day, N=70) is on record?
A: 27 patients

Q: What about the “Resolution of NASH without worsening of liver fibrosis (E2), percentage of patients” value ([1]; 800 mg per day, N=70) of the same compound?
A: 39%

Q: What about the “Resolution of NASH without worsening of liver fibrosis (E2), number of patients” value ([1]; 1200 mg per day, N=72) of the same compound?
A: 36 patients

Q: What about the “Resolution of NASH without worsening of liver fibrosis (E2), percentage of patients” value ([1]; 1200 mg per day, N=72) of the same compound?
A: 50%

Q: And the “Resolution of NASH without worsening of liver fibrosis (E2), number of patients” value [1, 3]?
A: 63 patients

Q: What about the “Resolution of NASH without worsening of liver fibrosis (E2), percentage of patients” value [1, 3] of the same compound?
A: 44%

Q: And the “Percentage of patients with a decrease of at least 2 points in the SAF-A score without worsening of fibrosis, compared to placebo” value ([2]; daily dose of 1200 mg, patients with active NASH)?
A: significantly higher

Q: What about the “Secondary endpoints (NASH resolution and fibrosis improvement, NASH resolution without worsening of fibrosis, improvement of fibrosis without worsening of NASH; NASH-CRN), compared to placebo” value ([2]; lanifibranor groups) of the same compound?
A: more favorable than placebo
